Laboratory results reported in the NIST ThermoML archive (doi:10.1021/je800152d).

Assay: cn = amount concentration of the nth substance listed, in mol/dm3
Conditions: 298.15 K, 101 kPa, Liquid, Direct current cell with electrodes

CCCCCCCCn1cc[n+](C)c1.O=S(=O)([N-]S(=O)(=O)C(F)(F)F)C(F)(F)F + ClCCl
Conditions	molar conductivity [S·m2/mol]
c1 = 1.807e-05	0.005919
c1 = 4.306e-05	0.004426
c1 = 7.895e-05	0.003536
c1 = 0.0001156	0.003048
c1 = 0.0001516	0.002738
c1 = 0.0001934	0.002482
c1 = 0.0002361	0.002291
c1 = 0.0002758	0.002153
c1 = 0.000322	0.002022
c1 = 0.000369	0.001913

CCCCCC[n+]1ccn(C)c1.O=S(=O)([N-]S(=O)(=O)C(F)(F)F)C(F)(F)F + ClCCl
Conditions	molar conductivity [S·m2/mol]
c1 = 3.872e-05	0.004826
c1 = 7.796e-05	0.003727
c1 = 0.0001134	0.003224
c1 = 0.0001471	0.002907
c1 = 0.0001812	0.002674
c1 = 0.000212	0.00251
c1 = 0.0002454	0.002365
c1 = 0.0002746	0.002261
c1 = 0.0003046	0.002169
c1 = 0.0003313	0.002097

CCCC[n+]1ccn(C)c1.O=S(=O)([N-]S(=O)(=O)C(F)(F)F)C(F)(F)F + ClCCl
Conditions	molar conductivity [S·m2/mol]
c1 = 3.993e-05	0.005031
c1 = 7.416e-05	0.004
c1 = 0.0001094	0.00344
c1 = 0.0001439	0.003085
c1 = 0.0001819	0.002807
c1 = 0.0002096	0.002651
c1 = 0.0002378	0.002519
c1 = 0.0002686	0.002394
c1 = 0.000298	0.002296
c1 = 0.0003273	0.002211

CCCCn1cc[n+](C)c1C.O=S(=O)([N-]S(=O)(=O)C(F)(F)F)C(F)(F)F + ClCCl
Conditions	molar conductivity [S·m2/mol]
c1 = 1.989e-05	0.008834
c1 = 6.027e-05	0.006684
c1 = 9.148e-05	0.005885
c1 = 0.000124	0.005336
c1 = 0.0001564	0.004935
c1 = 0.0001888	0.004628
c1 = 0.0002366	0.004278
c1 = 0.0002859	0.004001
c1 = 0.0003299	0.003802
c1 = 0.0003742	0.003634

CCCCn1cc[n+](C)c1C.F[P-](F)(F)(F)(F)F [1-butyl-2,3-dimethylimidazolium hexafluorophosphate] + ClCCl
Conditions	molar conductivity [S·m2/mol]
c1 = 4.824e-05	0.006815
c1 = 9.247e-05	0.00553
c1 = 0.0001694	0.004468
c1 = 0.0002351	0.003966
c1 = 0.0003147	0.003557
c1 = 0.0003984	0.003254
c1 = 0.0004826	0.003028
c1 = 0.0005864	0.002809
c1 = 0.0007039	0.002623
c1 = 0.0008092	0.002481

CCCCn1cc[n+](C)c1C.F[B-](F)(F)F [1-butyl-2,3-dimethylimidazolium tetrafluoroborate] + ClCCl
Conditions	molar conductivity [S·m2/mol]
c1 = 4.614e-05	0.006049
c1 = 9.614e-05	0.0047
c1 = 0.0001552	0.003942
c1 = 0.0002185	0.003459
c1 = 0.0002763	0.003161
c1 = 0.0003472	0.002891
c1 = 0.0004196	0.002684
c1 = 0.0005021	0.002502
c1 = 0.0005985	0.002336
c1 = 0.0006827	0.00222

CCCCn1cc[n+](C)c1.F[P-](F)(F)(F)(F)F [1-butyl-3-methylimidazolium hexafluorophosphate] + ClCCl
Conditions	molar conductivity [S·m2/mol]
c1 = 6.999e-05	0.003807
c1 = 0.0001329	0.002948
c1 = 0.0001743	0.002637
c1 = 0.0002133	0.002425
c1 = 0.0002543	0.002259
c1 = 0.0003123	0.002073
c1 = 0.0003665	0.001941
c1 = 0.0004379	0.001804
c1 = 0.0005447	0.001647
c1 = 0.0006393	0.001541

CCCCn1cc[n+](C)c1.F[B-](F)(F)F [1-butyl-3-methylimidazolium tetrafluoroborate] + ClCCl
Conditions	molar conductivity [S·m2/mol]
c1 = 4.455e-05	0.003701
c1 = 0.0001304	0.002353
c1 = 0.0002072	0.001927
c1 = 0.0002805	0.001689
c1 = 0.0003592	0.00152
c1 = 0.0004262	0.001412
c1 = 0.0005183	0.001299
c1 = 0.000625	0.0012
c1 = 0.0007268	0.001127
c1 = 0.0008458	0.001058

CCCCCCn1cc[n+](C)c1.F[P-](F)(F)(F)(F)F [1-hexyl-3-methylimidazolium hexafluorophosphate] + ClCCl
Conditions	molar conductivity [S·m2/mol]
c1 = 2.071e-05	0.005749
c1 = 5.447e-05	0.004058
c1 = 8.254e-05	0.003448
c1 = 0.0001144	0.003025
c1 = 0.000155	0.002673
c1 = 0.0002089	0.002363
c1 = 0.0002627	0.002148
c1 = 0.0003123	0.001996
c1 = 0.0003903	0.001821
c1 = 0.0004551	0.00171

CCCCCCn1cc[n+](C)c1.F[B-](F)(F)F [1-hexyl-3-methylimidazolium tetrafluoroborate] + ClCCl
Conditions	molar conductivity [S·m2/mol]
c1 = 5.56e-05	0.003176
c1 = 0.000168	0.001993
c1 = 0.000301	0.001551
c1 = 0.0004416	0.001315
c1 = 0.0005288	0.001218
c1 = 0.0006627	0.001107
c1 = 0.0007566	0.001048
c1 = 0.0009189	0.0009669
c1 = 0.001094	0.0009009
c1 = 0.001243	0.000856

CCCCCCCC[n+]1ccn(C)c1.F[B-](F)(F)F [1-methyl-3-octylimidazolium tetrafluoroborate] + ClCCl
Conditions	molar conductivity [S·m2/mol]
c1 = 7.212e-05	0.002781
c1 = 0.0001299	0.002171
c1 = 0.000219	0.001735
c1 = 0.0002957	0.001524
c1 = 0.0003827	0.001364
c1 = 0.0004665	0.001253
c1 = 0.0005719	0.001149
c1 = 0.0006901	0.001061
c1 = 0.0008223	0.000986
c1 = 0.0009584	0.0009257

CCCCCCCC[n+]1ccn(C)c1.F[P-](F)(F)(F)(F)F [1-octyl-3-methylimidazolium hexafluorophosphate] + ClCCl
Conditions	molar conductivity [S·m2/mol]
c1 = 2.186e-05	0.005349
c1 = 5.202e-05	0.003925
c1 = 8.128e-05	0.003298
c1 = 0.0001312	0.002717
c1 = 0.0001741	0.00242
c1 = 0.000228	0.002164
c1 = 0.0002847	0.001973
c1 = 0.00035	0.00181
c1 = 0.0004112	0.001693
c1 = 0.000468	0.001605

CCCC[N+](CCCC)(CCCC)CCCC.O=S(=O)([N-]S(=O)(=O)C(F)(F)F)C(F)(F)F [tetrabutylammonium bis[(trifluoromethyl)sulfonyl]imide] + ClCCl
Conditions	molar conductivity [S·m2/mol]
c1 = 3.138e-05	0.007892
c1 = 6.11e-05	0.006903
c1 = 0.0001374	0.005603
c1 = 0.0001725	0.00525
c1 = 0.0002161	0.00489
c1 = 0.0002632	0.004603
c1 = 0.0003161	0.004342
c1 = 0.0003672	0.004133
c1 = 0.0004141	0.003988

CC[N+](CC)(CC)CC.O=S(=O)([N-]S(=O)(=O)C(F)(F)F)C(F)(F)F [tetraethylammonium bis[(trifluoromethyl)sulfonyl]imide] + ClCCl
Conditions	molar conductivity [S·m2/mol]
c1 = 2.423e-05	0.009105
c1 = 5.571e-05	0.007427
c1 = 9.604e-05	0.006311
c1 = 0.0001485	0.005431
c1 = 0.0001889	0.005043
c1 = 0.0002419	0.004629
c1 = 0.0002877	0.004339
c1 = 0.0004028	0.003882
c1 = 0.0004632	0.003716

CC[N+](CC)(CC)CC.F[P-](F)(F)(F)(F)F [tetraethylammonium hexafluorophosphate] + ClCCl
Conditions	molar conductivity [S·m2/mol]
c1 = 2.991e-05	0.008681
c1 = 7.038e-05	0.00678
c1 = 0.0001289	0.005542
c1 = 0.0001812	0.004911
c1 = 0.0002384	0.004448
c1 = 0.0002993	0.00409
c1 = 0.0003669	0.003794
c1 = 0.0004231	0.003599
c1 = 0.000508	0.003365
c1 = 0.0006057	0.003153

CC[N+](CC)(CC)CC.F[B-](F)(F)F [tetraethylammonium tetrafluoroborate] + ClCCl
Conditions	molar conductivity [S·m2/mol]
c1 = 5.65e-05	0.006094
c1 = 0.000125	0.004646
c1 = 0.0002055	0.003888
c1 = 0.0002819	0.003459
c1 = 0.0003766	0.003101
c1 = 0.0004713	0.002847
c1 = 0.0005736	0.002643
c1 = 0.0006991	0.00245
c1 = 0.0007981	0.00233
c1 = 0.0008975	0.002227

C[N+](C)(C)C.O=S(=O)([N-]S(=O)(=O)C(F)(F)F)C(F)(F)F [tetramethylammonium bis[(trifluoromethyl)sulfonyl]imide] + ClCCl
Conditions	molar conductivity [S·m2/mol]
c1 = 1.807e-05	0.006904
c1 = 4.669e-05	0.005019
c1 = 8.293e-05	0.004043
c1 = 0.0001225	0.003465
c1 = 0.0001669	0.003057
c1 = 0.000209	0.002792
c1 = 0.0002676	0.002521
c1 = 0.0003329	0.002305
c1 = 0.0004062	0.002123
c1 = 0.0004962	0.001957
